Laboratory results taken from patent US20230321044A1, “TREATMENT OR PREVENTION METHOD FOR CHRONIC HEART FAILURE” (Japan Tobacco Inc., priority 2020, published 2023).
“Also recorded” adds a separate entry of the source.

Experiments:
[1] = test system: hypertensive heart failure rats; assay: Assessment of cardiac function in rats with hypertensive heart failure (Test Example 2); assay type: in vivo, rat
Procedure: Male DIS/Eis (Dahl-Iwai S) rats (Dahl rats) (7-week old, Japan SLC, Inc.) were fed a high-salt diet (MF 8% sodium chloride-adjusted feed, Oriental Yeast Co., ltd.) to prepare hypertensive heart failure rats. Normal controls were fed a normal diet (CRF-1 solid, Oriental Yeast Co., ltd.). Three weeks later, after confirmation of the development of pathological condition (hypertension or cardiomegaly), vehicle (0.5% methylcellulose solution) or Compound 1 (3 mg/kg group or Ascending Dose group) was orally administered to the hypertensive heart failure rat group once daily, and the vehicle was orally administered once daily to the normal control group. […] After five weeks of administration, an ultrasonograph (Aplio 300, Toshiba Medical Systems Corporation) was used to measure the left ventricular ejection fraction, and a non-invasive automated blood pressure measuring device (BP-98A, Softlon Co.,Ltd.) was used to measure the systolic blood pressure. After six weeks of administration, ADVantage P-V catheter (Model FTH-1918B-E318, Transonic Scisense Inc.) was inserted into the left ventricle from the apex to measure the left ventricular end-diastolic pressure. […] For statistical analysis, Student test or Aspin-Welch t test was conducted between the vehicle-administered normal control group and the vehicle-administered group of hypertensive heart failure rats. Dunnett’s multiple test was conducted for the Compound 1 group to the vehicle group of hypertensive heart failure rats. The significance level was two-sided 5%. Form the results, it was confirmed that the hypertensive heart failure rats developed HFpEF because the EDPVRβ and left ventricular end-diastolic pressure were increased whereas the left ventricular ejection fraction was not decreased, compared with the normal control group. […] Compound 1 also had no effect on the urine volume in the hypertensive heart failure rats.

[2] = test system: post-myocardial infarction heart failure rats; assay: Assessment of cardiac function in rats with post-myocardial infarction heart failure (Test Example 1); assay type: in vivo, rat
Procedure: Male SD rats (8-week old, Japan SLC, Inc.) were anesthetized with pentobarbital, then, under controlled mechanical ventilation, underwent thoracotomy and permanent ligation of the left anterior descending coronary artery to prepare rats with post-myocardial infarction heart failure. A sham-operated group was prepared by undergoing only thoracotomy in the same way to expose the heart. Two weeks later, vehicle (0.5% methylcellulose solution) or Compound 1 (3 mg/kg group or Ascending Dose group) was orally administered once daily to the group of post-myocardial infarction heart failure rat, and the vehicle was orally administered once daily to the sham-operated group. The dose for the Ascending Dose group was started with 3 mg/kg, increased to 6 mg/kg after two weeks and to 8 mg/kg after two more weeks, and maintained at 8 mg/kg thereafter. After eight weeks of administration, an ultrasonograph (Aplio 300, Toshiba Medical Systems Corporation) was used to measure the left ventricular ejection fraction, and Catheter-tipped micromanometer (Model SPR-320, Millar Inc.) was inserted into the left ventricle via the left carotid artery to measure the left ventricular end-diastolic pressure. For statistical analysis, Aspin-Welch t test was conducted between the sham-operated vehicle-administered group and the vehicle-administered group of post-myocardial infarction heart failure rats. Steel’s multiple comparison test was conducted for the Compound 1 group to the vehicle group of post-myocardial infarction heart failure rats. The significance level was two-sided 5%. Form the results, it was confirmed that the vehicle-administered group of post-myocardial infarction heart failure rats developed HFrEF because the left ventricular ejection fraction was decreased and the left ventricular end-diastolic pressure was increased, compared with the sham-operated vehicle-administered group.

C[C@H]1C(=O)NC[C@@H]1C(=O)Nc1cc(-c2cc(F)cc(OC(C)(C)C)c2)n(C(F)(F)F)n1 [Compound 1]
EDPVRβ (end-diastolic pressure-volume relationship β) ([1]; 3 mg/kg group, oral once daily, six weeks, vs vehicle, FIG. 4): lower value
EDPVRβ (end-diastolic pressure-volume relationship β) ([1]; Ascending Dose group (3, then 6, then 8 mg/kg), oral once daily, six weeks, vs vehicle, p < 0.05, FIG. 4): significantly reduced
EDPVRβ (end-diastolic pressure-volume relationship β) ([1]; dose groups not distinguished, oral once daily, six weeks): reduced
left ventricular end-diastolic pressure ([1]; hypertensive heart failure (Dahl) rats, oral once daily, six weeks, vs vehicle, p < 0.05 and p < 0.01, FIG. 3): significantly reduced
systolic blood pressure ([1]; hypertensive heart failure rats, after five weeks of administration, FIG. 6): had no effect
urine volume ([1]; hypertensive heart failure rats, in comparison with the vehicle, FIG. 7): did not affect; also recorded: had no effect
HFpEF improving effect ([1]; hypertensive heart failure rats, overall conclusion): has an HFpEF improving effect
left ventricular ejection fraction ([2]; 3 mg/kg group, oral once daily, eight weeks, vs vehicle, FIG. 2): higher value
left ventricular ejection fraction ([2]; Ascending Dose group (3, then 6, then 8 mg/kg), oral once daily, eight weeks, vs vehicle, p < 0.05, FIG. 2): significantly increased
left ventricular ejection fraction ([2]; dose groups not distinguished (3 mg/kg or Ascending Dose), oral once daily, eight weeks): increased
left ventricular end-diastolic pressure ([2]; post-myocardial infarction heart failure rats, oral once daily, eight weeks, in comparison with the vehicle, FIG. 1): lower value; also recorded: suppressed
HFrEF improving effect ([2]; post-myocardial infarction heart failure rats, overall conclusion): improved HFrEF; also recorded: has an HFrEF improving effect
